Results from publication PMC10526199 (Biomolecules, 2023).

Key:
HDAC1 = conditions: cited from earlier work
HDAC2 = conditions: cited from earlier work
HDAC3 = conditions: cited from earlier work
HDAC8 = conditions: cited from earlier work
3xTg-AD mice [1] = assay: Behavior tests (NOR and battery) in 3xTg-AD mice; type: in vivo, mouse; conditions: 0.01 mg/kg oral gavage 5 days a week
From the text: (§1) Male and female triple-transgenic AD (3xTg-AD) mice from the NIH-supported Mutant Mouse Resource & Research Centers (MMRRC) were purchased through the Jackson Laboratory (Farmington, CT, USA). Mice were housed four animals per cage in an AAALAC-accredited animal facility at the University of Miami Miller School of Medicine. All experiments were approved by the University of Miami Miller School of Medicine Institutional Animal Care and Use Committee (IACUC).
(§2) Formulations were made fresh weekly and sonicated briefly to mix. Beginning at 4 months of age (prior to disease development), mice were treated 5 days a week for 9 months.
A series of behavior tests intended to test motor coordination, anxiety, spatial learning, and reference memory was performed as previously performed by our lab. Motor coordination was assessed at 11 months of age using rotarod. Anxiety was assessed by open field at 7 months and elevated O-maze at 11 months. […]
1. […] Motor coordination was assessed by the latency to fall on the very first trial between treatment groups. […]
3. […] Arm entries were recorded and percent of spontaneous alternations was calculated. […]
4. […] Distance traveled, velocity of movement within the arena, and time in center versus periphery were recorded and analyzed. Anxiety- related behavior is assessed by the duration spent in the center of the field versus the periphery. […]

3xTg-AD mice [2] = assay: Intraperitoneal glucose tolerance testing (GTT) in 3xTg-AD mice; type: in vivo, mouse; conditions: 10 months of age, 0.01 mg/kg oral gavage 5 days a week
From the text: as §1, §2
(§3) Mice underwent intraperitoneal (i.p.) glucose tolerance testing (GTT) at 10 months of age, and insulin tolerance testing (ITT) at 12 months of age. For both tests, mice were food fasted 6 h prior to testing, with access to water. For GTT, mice were injected with 1.5 g/kg body weight glucose diluted in saline. For ITT, mice were injected with 0.8 U/kg body weight insulin. For both tests, blood glucose was measured from a tail prick by a glucometer (Bayer; Leverkusen, Germany) at 0, 15, 30, 60, 90, and 120 min.

3xTg-AD mice [3] = assay: Insulin tolerance testing (ITT) in 3xTg-AD mice; type: in vivo, mouse; conditions: 12 months, 0.01 mg/kg oral gavage 5 days a week
From the text: as §1, §2, §3

[4] = tested on: Human Aβ1–42, Aβ1–40, total tau, phosphorylated-tau Serine-396, phosphorylated-tau Threonine-181; assay: ELISA for tau and Aβ species in brain tissue of 3xTg-AD mice; type: in vivo, mouse
From the text: as §1, §2
(§4) At 13 months of age, mice were anaesthetized with isoflurane and euthanized via cardiac puncture. The brain was extracted and quickly dissected on ice, and snap-frozen in liquid nitrogen. The samples were stored at −80 °C until processed. For each mouse, brain regions from one hemisphere were used for RNA extraction and qPCR and sections from the other hemisphere were used for protein extraction and ELISAs.
Protein lysates were prepared by sonicating tissue in M-PER Mammalian Protein Extraction Reagent (Thermo Fisher Scientific; Waltham, MA, USA) supplemented with protease and phosphatase inhibitor (Thermo Fisher Scientific). Total protein was quantified using Pierce BCA Protein Assay Kit (Thermo Fisher Scientific). Human Aβ1–42, Aβ1–40, total tau, phosphorylated-tau Serine-396, and phosphorylated-tau Threonine-181 were measured in brain tissue by enzyme-linked immunosorbent assay (ELISA; Invitrogen, Thermo Fisher Scientific), and measured using the EnVision® multimode plate reader (Perkin Elmer; Waltham, MA, USA).

[5] = tested on: differentially expressed genes; assay: NanoString nCounter Mouse Neuropathology Panel and Ingenuity Pathway Analysis, ERC RNA of 3xTg-AD mice; type: in vivo; conditions: for DEGs decreased compared to vehicle / DEGs increased compared to vehicle / significant differentially expressed genes (DEG) compared to vehicle: ERC, 0.01 mg/kg oral gavage 9 months; for significant differentially expressed genes (DEG) compared to vehicle: Q value < 0.01; for most pathways incl. neuroinflammation signaling and amyloid processing pathway, vs vehicle: Ingenuity Pathway Analysis
From the text: as §1, §2, §4
The NanoString Technologies nCounter® Mouse Neuropathology Panel was used to assess ERC RNA. This panel screens expression of 770 genes specific for neurodegeneration. We also included a custom 30-gene spike-in code set to include specific genes of interest. Assays were performed using the NanoString protocols, and data were normalized in nSolver® analysis software v 2.0.
Heatmaps were created with Morpheus Software (accessed on 20 February 2022; software.broadinstitute.org/Morpheus). Ingenuity Pathway Analysis (Qiagen) was used to run comparison analyses of differentially regulated pathways between male and female animals.

Adam10, Slc2a1, Slc2a3 = assay: RT-qPCR of AD- and glucose metabolism-related genes in brain of 3xTg-AD mice; type: in vivo, mouse; conditions: 0.01 mg/kg oral gavage 9 months
From the text: as §1, §2, §4
RNA was isolated from tissue using TRIzol® reagent (Life Technologies, Thermo Fisher Scientific) and a Qiagen RNeasy® Mini Kit (Qiagen; Hilden, Germany). RNA concentrations and quality were determined using NanoDrop 2000 UV-Vis Spectrophotometer (Thermo Fisher Scientific). cDNA was created using qScript cDNA Synthesis kit (Quantabio; Beverly, MA, USA). RT-qPCR was run using TaqMan 2-step RT-qPCR reagents (Thermo Fisher Scientific) on the QuantStudio Flex RT-qPCR system (Applied Biosystems, Thermo Fisher Scientific). Fold-change in gene expression relative to non-transduced controls were normalized. Results presented are based on fold-change using the 2^(−ΔΔCt) method.

HDAC10 = conditions: cited from earlier work
[6] = cited from earlier work
[7] = tested on: histone H3K27 acetylation; conditions: 0.1 mg/kg, mouse model of immune thrombocytopenia; cited from earlier work
[8] = PFC, 0.01 mg/kg oral gavage 5 days a week for 9 months
[9] = hippocampus, females, 0.01 mg/kg oral gavage 5 days a week for 9 months
[10] = hippocampus, males, 0.01 mg/kg oral gavage 5 days a week for 9 months

CC(=O)Nc1ccc(C(=O)Nc2ccccc2N)cc1 [Tacedinaline]
IC50 (HDAC1): […] | IC50 (HDAC2): 0.9 µM | IC50 (HDAC3): 1.2 µM | inhibition of HDAC8 (HDAC8): not reported to inhibit HDAC8

Nc1cc(F)ccc1NC(=O)c1ccc(CNC(=O)/C=C/c2cccnc2)cc1 [chidamide]
NOR: time exploring novel vs familiar object compared to vehicle (3xTg-AD mice [1]; 10-month-old males): longer time exploring the novel object | overall behavior data (anxiety, learning, memory) (3xTg-AD mice [1]; males and females): do not reach the appropriate effect size to distinguish any meaningful results | glucose tolerance vs vehicle (3xTg-AD mice [2]; females): trend towards improved glucose tolerance | glucose tolerance vs vehicle (3xTg-AD mice [2]; males): significant improvement in glucose tolerance | insulin tolerance vs vehicle (3xTg-AD mice [3]; females): No significant differences | insulin tolerance vs vehicle (3xTg-AD mice [3]; males): No significant differences | tau phosphorylated at serine 396 (S396) vs vehicle ([4]; PFC, females, 0.01 mg/kg oral gavage 5 days a week for 9 months): no significant difference | tau phosphorylated at serine 396 (S396) vs vehicle ([4]; PFC, males, 0.01 mg/kg oral gavage 5 days a week for 9 months): significantly greater | Aβ-40 levels, treated females compared to treated males [4, 8]: greater in chidamide-treated females compared to males | PFC Aβ-42 change with treatment [4, 8]: a corresponding decrease in PFC Aβ-42 was not observed | progression of AD-like pathology ([4]; chronic, low-dose 0.01 mg/kg, 3xTg-AD mouse): does not appear to significantly alter progression of AD-like pathology | tau phosphorylated at threonine 181 (T181) vs vehicle [4, 9]: trend for decreased levels | total tau levels vs vehicle [4, 9]: did not show a significant difference | tau phosphorylated at threonine 181 (T181) vs vehicle [4, 10]: trend for decreased levels | total tau levels vs vehicle [4, 10]: significantly lower levels of total tau | Aβ-42 levels, treated females compared to treated males ([4]; hippocampus, 0.01 mg/kg oral gavage 5 days a week for 9 months): significantly greater in the hippocampus of female- compared to male-treated mice | DEGs decreased compared to vehicle ([5]; females): 6 | DEGs increased compared to vehicle ([5]; females): 11 | significant differentially expressed genes (DEG) compared to vehicle ([5]; females): 17 | most pathways incl. neuroinflammation signaling and amyloid processing pathway, vs vehicle ([5]; females): downregulated | DEGs decreased compared to vehicle ([5]; males): 41 | DEGs increased compared to vehicle ([5]; males): 83 | significant differentially expressed genes (DEG) compared to vehicle ([5]; males): 124 | most pathways incl. neuroinflammation signaling and amyloid processing pathway, vs vehicle ([5]; males): upregulated | Adam10 expression vs vehicle (Adam10, Slc2a1, Slc2a3; PFC, females): significantly greater | Adam10 expression vs vehicle (Adam10, Slc2a1, Slc2a3; PFC, males): trend for increase | Adam10 expression vs vehicle (Adam10, Slc2a1, Slc2a3; hippocampus): no difference was observed | Slc2a1 (GLUT1) expression vs vehicle (Adam10, Slc2a1, Slc2a3; males, hippocampus): trend for an increase | Slc2a3 (GLUT3) expression vs vehicle (Adam10, Slc2a1, Slc2a3; males, hippocampus): significant increase | inhibition of HDAC1 (HDAC1): low nanomolar range | inhibition of HDAC2 (HDAC2): low nanomolar range | inhibition of HDAC3 (HDAC3): low nanomolar range | inhibition of class IIB HDAC10 (HDAC10): low nanomolar range | blood–brain barrier crossing [6]: crosses the blood–brain barrier | histone H3K27 acetylation [7]: modulation of histone H3K27 acetylation occurred at this low dose
